Measured values reported in PMC5424110, “Preclinical anti-arthritic study and pharmacokinetic properties of a potent histone deacetylase inhibitor MPT0G009” (Cell Death & Disease, 2014).
Entries after “also recorded” stand apart in the source; their conditions may differ. Read-outs that look alike come from different tables or passages of the source.

Assays:
[1] = system: CD51/61 on RAW264.7 cells; experiment: Osteoclast-specific marker CD51/61 by flow cytometry; settings: RAW264.7, M-CSF/RANKL; 5 nM MPT0G009 or 50 nM SAHA
Procedure: Subsequently, multinucleate tartrate-resistant acid phosphatase (TRAP)-positive cells were counted.
Cells were then TRAP stained, and the numbers of TRAP-positive multinuclear cells were counted. […] Images are at × 100 magnification, and the arrows indicate differentiated osteoclasts.
Cells were then TRAP stained, and the numbers of TRAP-positive multinuclear cells were counted (d) or were incubated with a FITC-conjugated anti-CD51/61 antibody and analyzed by flow cytometry (e).
After three washes with FACS washing buffer, the fluorescence of the cells was analyzed on a FACScan flow cytometer (BD Biosciences).

[2] = system: RAW264.7 cells; experiment: Inflammatory mediator production by LPS-stimulated RAW264.7 cells; assay type: cell-based, mouse; settings: RAW264.7, LPS 25 ng/ml 24 h; MPT0G009 0.1, 1 or 10 μM; SAHA 0.3, 3 or 30 μM
Procedure: (§1) (a) Structure of MPT0G009.
(§2) These supernatants were then assayed for prostaglandin E2 (PGE2), NO and IL-6.

[3] = system: rat AIA model; experiment: In vivo adjuvant-induced arthritis (AIA) model; settings: day 21, ELISA, MPT0G009 25 mg/kg, SAHA 200 mg/kg, indomethacin 1 mg/kg
Procedure: Next, we evaluated the in vivo anti-arthritic effects of MPT0G009 in a rat AIA model. […] The inhibition of synoviocytes proliferation and inflammation by MPT0G009 treatment was also observed (Supplementary Figure 1).
Figure 5 MPT0G009 inhibits the development of arthritis in an AIA model. […] Subsequently, swelling of both hind paws was photographed. (b) Hind paw volumes in the indicated group of rats were measured using a digital plethysmometer on the indicated day after AIA induction. (c) Arthritis scores on day 21. (d) Serum levels of interleukin (IL)-1β (left panel) and IL-6 (right panel) on day 21 as measured by enzyme-linked immunosorbent assay (ELISA). (e) Top five rows: photomicrographs of ankle joint sections from the different groups stained with hematoxylin and eosin, safranin O, immunohistochemically stained with an anti-acetyl H3 antibody or TRAP stain. Arrows indicate osteoblasts (OB); arrowheads indicate osteoclasts (OC). Bottom panels: micro-CT results (arrows indicate bone erosion). (f) The BMD (in mg/mm^3) and the BMC (in mg) values for the bone tissue of the tarsus were analyzed using CT Analysis Software.
Five-week-old male Lewis rats were obtained from the National Laboratory Animal Center (Taipei, Taiwan). Complete Freund's adjuvant (CFA) was prepared by suspending heat-killed Mycobacterium butyricum (Difco, Sparks, MD, USA) in mineral oil at 3 mg/ml. CFA-induced arthritis was induced by intradermal injection of 100 μl of the CFA emulsion into the base of the right hind paw on day 0. […] On days 0, 2, 6, 9, 13, 17 and 21, the animals were weighed and both hind paw volumes measured using a digital plethysmometer (Diagnostic & Research Instruments Co. Ltd, Taipei, Taiwan). On day 21, micro-CT of the paws was performed by the Core Facilities Center of the National Research Program for Biopharmaceuticals using an in vivo micro-CT scanner (Skyscan 1176, Bruker Corp., Kontich, Belgium) at 18 μm resolution and 180° scanning with a rotation step of 0.8° per image, 300 ms integration time, 70 keV photon energy and 350 μA current. The reconstructed volumes from micro-CT scans were analyzed by CT Analysis Software (CTAn, Bruker Corp.). Quantification of volumetric BMD and bone volume (BV) was performed in a defined bone area ranging 12 mm from tarsals to the end of the calcaneus. The BMC was described by the product of BV and BMD. On day 21, the rats were killed and specimens from the phalanges and ankle joints stained with hematoxylin–eosin or safranin O for histopathological assessment by the National Laboratory Animal Center. Intensity of arthritis was scored as described previously from 0 to 4.[19] All four legs were scored, so the highest possible arthritic score was 16.

[4] = system: p21 in RA-FLS; experiment: p21 expression in RA-FLS by flow cytometry
Procedure: After three washes with FACS washing buffer, the fluorescence of the cells was analyzed on a FACScan flow cytometer (BD Biosciences). […] They were then incubated for 30 min at room temperature with 0.2 ml of DNA extraction buffer (0.2 M Na2HPO4 and 0.1 M citric acid buffer, pH 7.8), resuspended in 1 ml of propidium iodide staining buffer (0.1% Triton X-100, 100 μg/ml of RNase A and 80 μg/ml of propidium iodide in PBS), incubated at 37 °C for 30 min in the dark, sorted by FACScan, and analyzed using CellQuest software (BD Biosciences).

[5] = system: histone H3 acetylation in HIG-82 synoviocytes; experiment: Western blot of acetyl histone H3, HIG-82 cells; assay type: cell-based, rabbit; settings: 3 μM MPT0G009 or 60 μM SAHA, 6, 12 or 24 h, starting at 6 h
[6] = parameters: method as in PMID 17473456; settings: rat, cited from earlier work
[7] = system: HIG-82 synoviocytes; experiment: Cell proliferation assay (SRB), HIG-82 synoviocytes; assay type: cell-based, rabbit; settings: 24 or 48 h
[8] = system: RA-FLS; experiment: Cell proliferation assay (SRB), RA-FLS; assay type: cell-based, human; settings: 24 or 48 h
[9] = system: RA-FLS; experiment: Cell cycle distribution by propidium iodide flow cytometry; assay type: cell-based, human; settings: RA-FLS 24 h, MPT0G009 1–1000 nM, SAHA 3–3000 nM
[10] = system: RAW264.7 macrophages; experiment: Osteoclast differentiation assay (TRAP stain), M-CSF/RANKL-induced; assay type: cell-based, mouse; settings: RAW264.7, M-CSF/RANKL 50 ng/ml 5 days; 5 nM MPT0G009 or 50 nM SAHA
Procedure: Osteoclast formation was measured by quantifying cells stained for the osteoclast marker TRAP using an acid phosphatase kit (387-A; Sigma-Aldrich). Briefly, the specimens were fixed for 30 s in fixative solution (25.5% citrate solution, 66.3% acetone, 8.2% of 37% formaldehyde), then incubated for 1 h at 37 °C with a mixture of the provided naphthol AS-BI phosphate and tartrate solutions, followed by counterstaining with hematoxylin solution. Osteoclasts were counted as TRAP-positive multinuclear (>3 nuclei) cells using light microscopy. The morphological features of osteoclasts were also photographed.

[11] = system: histone H3 acetylation and HDAC3 in RA-FLS; experiment: Western blot of acetyl histone H3 and HDAC isoforms, RA-FLS; assay type: cell-based, human
Procedure: Then, cells were harvested and cell lysates were prepared for western blot analysis of the indicated proteins. (c) RA-FLSs were incubated for 1 h with or without the proteasome inhibitor, MG132 (1 μM). […] Results shown are representative of three independent experiments.

[12] = system: RA fibroblast-like synoviocyte (RA-FLS); experiment: Inflammatory mediator production by stimulated RA-FLS; assay type: cell-based, human; settings: MPT0G009 0.1, 1 or 10 μM, SAHA 0.3, 3 or 30 μM
Procedure: as §1, §2

SMILES: O=C(CCCCCCC(=O)Nc1ccccc1)NO [SAHA, suberoylanilide hydroxamic acid, reference compound]
- expression of the osteoclast-specific marker (CD51/61) [1]: had no effect
- NO production [2]: inhibited
- PGE2 production [2]: inhibited
- serum levels of IL-1β [3]: significant decreases
- serum levels of IL-6 [3]: significant decreases
- expression of p21 ([4]; RA-FLS 24 h, 1 μM MPT0G009 or 3 μM SAHA, flow cytometry or western blot): significantly increased
- p21 (flow cytometry) ([4]; RA-FLS, 3 μM, 24 h, Figure 1h): 96.42%
- acetylation of histone H3 (Acetyl-H3) [5]: had a similar effect
- AUC(0-inf) ([6]; i.v. 2 mg/kg): 0.278 µg·h/mL
- CL ([6]; i.v. 2 mg/kg): 8.04 L/h/kg
- T1/2 ([6]; i.v. 2 mg/kg): 38.4 min
- Vd ([6]; i.v. 2 mg/kg): 3.92 L/kg
- AUC(0-inf) ([6]; p.o. 5 mg/kg): 0.0494 µg·h/mL
- Cmax ([6]; p.o. 5 mg/kg): 0.0839 µg/mL
- F (oral bioavailability) ([6]; p.o. 5 mg/kg): 6.9%
- T1/2 ([6]; p.o. 5 mg/kg): 67.8 min
- Tmax ([6]; p.o. 5 mg/kg): 10.2 min
- anti-proliferative effect [7]: concentration-dependent anti-proliferative effects
- anti-proliferative effect [8]: concentration-dependent anti-proliferative effects
- subG1 peak (cellular apoptosis) [9]: did not increase the subG1 peak
- cell cycle arrest ([9]; all concentrations): G0/G1 phase arrest
- formation of M-CSF/RANKL-induced TRAP-positive cells [10]: had no effect; also recorded: had little effect
- acetylation of histone H3 (Acetyl-H3) ([11]; 1 μM MPT0G009 or 30 μM SAHA, 6, 12 or 24 h, starting at 12 h): had a similar effect
- levels of HDAC3 ([11]; 12 or 24 h, 1 μM MPT0G009 or 30 μM SAHA): had no effect
- IL-6 production ([12]; IL-1β 10 ng/ml 24 h): inhibited
- PGE2 production ([12]; LPS 25 ng/ml 24 h): inhibited

SMILES: COc1ccc2c(c1)c(CC(=O)O)c(C)n2C(=O)c1ccc(Cl)cc1 [indomethacin, reference compound]
- serum levels of IL-1β [3]: significant decreases
- serum levels of IL-6 [3]: significant decreases
